{"source": "BindingDB's records for doi:10.1016/j.bmcl.2012.07.045", "about": "(Rhône-Poulenc Rorer, 2012)", "data": [{"molecular_target": "Tyrosine-protein kinase SYK (Homo sapiens) (UniProt P43405)", "assay": "Inhibition of human recombinant full-length Syk using poly-GT as substrate after 40 mins by radioactive filtration assay", "units": {"IC50": "nM"}, "values": [{"smiles": "Cc1cc(C(=O)Nc2cc(Nc3cnccn3)nc(-c3ccnc(N4CCNCC4)c3)c2)n(C)n1", "IC50": 7}, {"smiles": "CNc1cc(Nc2cnccn2)nc(-c2ccnc(N3CCNCC3)c2)c1", "IC50": 4}, {"smiles": "Cc1ccnc(Nc2cccc(-c3ccnc(NCCCN)c3)n2)c1", "IC50": 528}, {"smiles": "Cc1ccnc(Nc2cccc(-c3cccnc3)n2)c1", "IC50": 2700}, {"smiles": "c1cc(-c2cccc(Nc3cnccn3)n2)cc(N2CCNCC2)c1", "IC50": 43}, {"smiles": "O=C(Nc1cc(Nc2cnccn2)nc(-c2ccnc(N3CCNCC3)c2)c1)c1ccc(C(=O)O)nc1", "IC50": 10}, {"smiles": "CC(=O)N1CCC(C(=O)Nc2cc(Nc3cnccn3)nc(-c3ccnc(N4CCNCC4)c3)c2)CC1", "IC50": 5}, {"smiles": "Cc1ccnc(Nc2cccc(-c3ccnc(N4CCNCC4)c3)n2)c1", "IC50": 14}, {"smiles": "Cc1ccnc(Nc2cccc(-c3cccc(CN)c3)n2)c1", "IC50": 1670}, {"smiles": "O=C(Nc1cc(Nc2cnccn2)nc(-c2ccnc(N3CCNCC3)c2)c1)c1cccnc1", "IC50": 6}, {"smiles": "Cc1ccnc(Nc2cccc(-c3cccc(NCCN)c3)n2)c1", "IC50": 91}, {"smiles": "O=C(Cc1cccnc1)Nc1cc(Nc2cnccn2)nc(-c2ccnc(N3CCNCC3)c2)c1", "IC50": 4}, {"smiles": "FC(F)(F)c1ccnc(Nc2cccc(-c3ccnc(N4CCNCC4)c3)n2)c1", "IC50": 1.8}, {"smiles": "O=C(Nc1cc(Nc2cnccn2)nc(-c2ccnc(N3CCNCC3)c2)c1)c1ccccc1", "IC50": 28}, {"smiles": "Cc1ccnc(Nc2cccc(-c3ccnc(N4CCCNCC4)c3)n2)c1", "IC50": 27}, {"smiles": "Nc1cc(Nc2cnccn2)nc(-c2ccnc(N3CCNCC3)c2)c1", "IC50": 4}, {"smiles": "O=C(Nc1cc(Nc2cnccn2)nc(-c2ccnc(N3CCNCC3)c2)c1)c1cncnc1", "IC50": 9}, {"smiles": "Cc1ccnc(Nc2cccc(-c3ccnc(N4CCC(N)CC4)c3)n2)c1", "IC50": 114}, {"smiles": "Cc1ccnc(Nc2cccc(-c3ccnc(N4CCC(N)C4)c3)n2)c1", "note": "(configuration not stated)", "IC50": 450}, {"smiles": "Cc1ccnc(Nc2cccc(-c3ccnc(NCCO)c3)n2)c1", "IC50": 1870}, {"smiles": "Cc1ccnc(Nc2cccc(-c3ccnc(NCCN)c3)n2)c1", "IC50": 200}, {"smiles": "Oc1ccc(CNc2cc(Nc3cnccn3)nc(-c3ccnc(N4CCNCC4)c3)c2)cc1", "IC50": 8}, {"smiles": "Cc1ccnc(Nc2cccc(-c3cccc(N)c3)n2)c1", "IC50": 3240}, {"smiles": "O=C(O)c1ccc(C(=O)Nc2cc(Nc3cnccn3)nc(-c3ccnc(N4CCNCC4)c3)c2)cc1", "IC50": 8}, {"smiles": "Cc1ccnc(Nc2cccc(-c3cccc(CCN)c3)n2)c1", "IC50": 160}, {"smiles": "O=C(Nc1cc(Nc2cnccn2)nc(-c2ccnc(N3CCNCC3)c2)c1)C1CCNCC1", "IC50": 4}, {"smiles": "c1cc(Nc2cnccn2)nc(-c2ccnc(N3CCNCC3)c2)c1", "IC50": 62}]}]}
